Results from patent US8455665B2, “3-phenoxymethylpyrrolidine compounds” (Theravance, Inc., priority 2009, dated 2013).
Read-outs that look alike come from different tables or passages of the source. Marks after values point to notes of the source that are not given here.

Experiments:
SERT = SERT (Homo sapiens, UniProt P31645); assay: fluorescence-based serotonin uptake assay (Tsuruda et al. 2010); format: cell-based
NET = NET (Homo sapiens, UniProt P23975); assay: fluorescence-based norepinephrine uptake assay (Tsuruda et al. 2010); format: cell-based
[1] = serotonin reuptake inhibition, fluorescence-based assay (data indicated by an asterisk)
[2] = norepinephrine reuptake inhibition, fluorescence-based assay (data indicated by an asterisk)
[3] = serotonin reuptake inhibition, fluorescence-based assay (data indicated by an asterisk), read-out: SERT pIC50 (converted)
[4] = norepinephrine reuptake inhibition, fluorescence-based assay (data indicated by an asterisk), read-out: NET pIC50 (converted)

Chain of SERT (P31645 whole entry, species assumed): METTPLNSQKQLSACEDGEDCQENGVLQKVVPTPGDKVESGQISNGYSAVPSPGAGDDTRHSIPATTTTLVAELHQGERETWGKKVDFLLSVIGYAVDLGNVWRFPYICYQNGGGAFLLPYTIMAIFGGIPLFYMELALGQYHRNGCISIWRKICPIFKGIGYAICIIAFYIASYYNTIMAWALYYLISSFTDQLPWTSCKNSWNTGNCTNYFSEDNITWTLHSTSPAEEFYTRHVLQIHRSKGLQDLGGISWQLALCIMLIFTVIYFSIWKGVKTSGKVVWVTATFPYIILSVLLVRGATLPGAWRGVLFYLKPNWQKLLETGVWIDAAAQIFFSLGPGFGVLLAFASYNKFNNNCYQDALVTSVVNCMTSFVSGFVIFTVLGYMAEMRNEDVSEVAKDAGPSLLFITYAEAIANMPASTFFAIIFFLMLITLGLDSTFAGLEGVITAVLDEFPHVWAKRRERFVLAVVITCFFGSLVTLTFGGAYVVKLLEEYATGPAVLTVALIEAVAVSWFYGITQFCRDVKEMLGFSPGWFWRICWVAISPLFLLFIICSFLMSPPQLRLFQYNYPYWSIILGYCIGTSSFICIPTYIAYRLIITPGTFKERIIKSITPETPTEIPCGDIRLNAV
Chain of NET (P23975 whole entry): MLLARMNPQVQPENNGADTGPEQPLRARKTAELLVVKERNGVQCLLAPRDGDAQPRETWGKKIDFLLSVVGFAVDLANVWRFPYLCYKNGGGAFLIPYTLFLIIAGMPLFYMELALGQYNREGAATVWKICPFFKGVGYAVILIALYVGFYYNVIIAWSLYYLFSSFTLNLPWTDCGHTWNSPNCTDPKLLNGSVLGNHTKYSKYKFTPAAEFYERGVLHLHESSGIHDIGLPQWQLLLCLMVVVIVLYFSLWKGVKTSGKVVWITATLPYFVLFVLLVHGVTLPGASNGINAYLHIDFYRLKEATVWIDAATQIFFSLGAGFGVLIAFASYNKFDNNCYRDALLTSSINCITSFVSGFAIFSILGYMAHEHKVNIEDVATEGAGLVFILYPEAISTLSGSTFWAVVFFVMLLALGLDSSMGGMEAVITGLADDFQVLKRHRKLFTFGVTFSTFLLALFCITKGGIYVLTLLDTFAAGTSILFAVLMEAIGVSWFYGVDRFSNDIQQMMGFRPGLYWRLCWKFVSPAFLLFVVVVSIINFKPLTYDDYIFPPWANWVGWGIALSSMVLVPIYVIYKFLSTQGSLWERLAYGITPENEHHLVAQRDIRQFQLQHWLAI

| Structure (SMILES) | IC50 (SERT; [3]) | IC50 (NET; [4]) | SERT pIC50 (SERT; [1]) | NET pIC50 (NET; [2]) | further results |
| --- | --- | --- | --- | --- | --- |
| CSC[C@@H](Oc1cccc(C(F)(F)F)c1)[C@H]1CCNC1.O=C(O)C(F)(F)F [Example 15-10] |  |  | ≧7.0* | ≧7.0* |  |
| CCSC[C@H](Oc1ccc(C(F)(F)F)cc1)[C@H]1CCNC1.O=C(O)C(F)(F)F [Example 17-11] |  |  | ≧8.0* | ≧8.0* |  |
| Clc1cccc(Cl)c1OC(COCc1ccccc1)C1CCNC1 [Example 10-4, ((S)-3-[(R)-2-Benzyloxy-1-(2,6-dichlorophenoxy)ethyl]pyrrolidine] | ≤ 100 nM | ≤ 10 nM |  |  |  |
| CCSC[C@@H](Oc1cccc(Cl)c1Cl)[C@H]1CCNC1.O=C(O)C(F)(F)F [Example 17-2] |  |  | ≧8.0* | ≧8.0* |  |
| CSC[C@H](Oc1cccc(Cl)c1C)[C@H]1CCNC1.O=C(O)C(F)(F)F [Example 15-5] |  |  | ≧8.0* | ≧8.0* |  |
| CC(C)SC[C@H](Oc1ccc(Cl)c(Cl)c1)[C@H]1CCNC1 [Example 19-7, (S)-3-[(R)-1-(3,4-Dichlorophenoxy)-2-isopropylsulfanylethyl]-pyrrolidine] | ≤ 10 nM | ≤ 10 nM |  |  |  |
| CCOC[C@@H](Oc1ccc(C#N)c(Cl)c1)[C@@H]1CCNC1 (stereo in doubt) [Example 7-25, 2-Chloro-4-((R)-2-ethoxy-1-(S)-pyrrolidin-3-ylethoxy)benzonitrile] |  |  |  |  | IC50 (SERT): ≤ 10 nM; IC50 (NET): ≤ 100 nM |
| CSC[C@H](Oc1cccc(C(F)(F)F)c1)[C@H]1CCNC1.O=C(O)C(F)(F)F [Example 15-9] |  |  | ≧7.0* | ≧7.0* |  |
| CSC[C@@H](Oc1cccc(Cl)c1C)[C@H]1CCNC1.O=C(O)C(F)(F)F [Example 15-6] |  |  | ≧8.0* | ≧8.0* |  |
| CSC[C@H](Oc1ccc(Cl)cc1C)[C@H]1CCNC1 [Example 14, (S)-3-[(R)-1-(4-Chloro-2-methylphenoxy)-2-methylsulfanylethyl]pyrrolidine] | ≤ 10 nM | ≤ 10 nM |  |  |  |
| CCSC[C@@H](Oc1cccc(C(F)(F)F)c1)[C@H]1CCNC1.O=C(O)C(F)(F)F [Example 17-12] |  |  | ≧8.0* | ≧7.0* |  |
| CCSC[C@H](Oc1ccc(Cl)cc1C(F)(F)F)[C@H]1CCNC1.O=C(O)C(F)(F)F [Example 17-13] |  |  | ≧8.0* | ≧8.0* |  |
| CSC[C@@H](Oc1cccc(Cl)c1Cl)[C@H]1CCNC1.O=C(O)C(F)(F)F [Example 15-2] |  |  | ≧8.0* | ≧8.0* |  |
| CC(C)OC[C@H](Oc1cccc(Cl)c1Cl)[C@H]1CCNC1 [Example 9-7, (S)-3-[(R)-1-(2,3-Dichlorophenoxy)-2-isopropoxyethyl]pyrrolidine] | ≤ 10 nM | ≤ 10 nM |  |  |  |
| CCSC[C@H](Oc1cccc(Cl)c1C)[C@H]1CCNC1.O=C(O)C(F)(F)F [Example 17-5] |  |  | ≧8.0* | ≧8.0* |  |
| CC(C)SC[C@H](Oc1cccc(Cl)c1Cl)[C@H]1CCNC1 [Example 19-1, (S)-3-[(R)-1-(2,3-Dichlorophenoxy)-2-isopropylsulfanylethyl]pyrrolidine] | ≤ 10 nM | ≤ 10 nM |  |  |  |
| CCSC[C@@H](Oc1cccc(F)c1Cl)[C@H]1CCNC1.O=C(O)C(F)(F)F [Example 17-4] |  |  | ≧8.0* | ≧8.0* |  |
| Cc1cc(Cl)ccc1O[C@@H](COCc1ccccc1)[C@H]1CCNC1.O=C(O)C(F)(F)F [Prep 3] |  |  | ≧8.0* | ≧8.0* |  |
| Clc1ccc(OC(COCc2ccccc2)C2CCNC2)c(Cl)c1 [Example 10-3, ((S)-3-[(R)-2-Benzyloxy-1-(2,4-dichlorophenoxy)ethyl]pyrrolidine] | ≤ 10 nM | ≤ 100 nM |  |  |  |
| Cc1c(Cl)cccc1OC(COCc1ccccc1)C1CCNC1 [Example 10-5, ((S)-3-[(R)-2-Benzyloxy-1-(3-chloro-2-methylphenoxy)ethyl]pyrrolidine] | ≤ 10 nM | ≤ 10 nM |  |  |  |
| CCSC[C@H](Oc1cccc(Cl)c1Cl)[C@H]1CCNC1.O=C(O)C(F)(F)F [Example 17-1] |  |  | ≧8.0* | ≧8.0* |  |
| CC(C)SC[C@@H](Oc1ccc(Cl)cc1Cl)[C@H]1CCNC1 [Example 19-5, (S)-3-[(S)-1-(2,4-Dichlorophenoxy)-2-isopropylsulfanylethyl]pyrrolidine] | ≤ 10 nM | ≤ 100 nM |  |  |  |
| CC(C)OC[C@@H](Oc1ccc(Cl)cc1Cl)[C@H]1CCNC1 [Example 9-23, (S)-3-[(S)-1-(2,4-Dichlorophenoxy)-2-isopropoxyethyl]pyrrolidine] | ≤ 10 nM | ≤ 100 nM |  |  |  |
| CC(C)SC[C@H](Oc1cccc(F)c1Cl)[C@H]1CCNC1 [Example 19-3, (S)-3-[(R)-1-(2-Chloro-3-fluorophenoxy)-2-isopropylsulfanylethyl]pyrrolidine] | ≤ 10 nM | ≤ 10 nM |  |  |  |
| Clc1ccccc1O[C@@H](COCc1ccccc1)[C@H]1CCNC1 [Example 10-1] |  |  | ≧7.0* | ≧8.0* |  |
| OC[C@@H](Oc1cccc(Cl)c1Cl)[C@@H]1CCNC1 (stereo in doubt) [Example 2-2, (R)-2-(2,3-Dichlorophenoxy)-2-(S)-pyrrolidin-3-yl-ethanol] | ≤ 100 nM | ≤ 10 nM |  |  |  |
| CSC[C@H](Oc1cccc(F)c1Cl)[C@H]1CCNC1.O=C(O)C(F)(F)F [Example 15-3] |  |  | ≧8.0* | ≧8.0* |  |

The next lines start with results.

| IC50 (SERT; [3]) | IC50 (NET; [4]) | Structure (SMILES) | SERT pIC50 (SERT; [1]) | NET pIC50 (NET; [2]) | further results |
| --- | --- | --- | --- | --- | --- |
| ≤ 10 nM | ≤ 10 nM | CCOC[C@H](Oc1ccc(Cl)cc1F)[C@H]1CCNC1 [Example 7-21, (S)-3-[(R)-1-(4-Chloro-2-fluorophenoxy)-2-ethoxyethyl]pyrrolidine] |  |  |  |
| ≤ 10 nM | ≤ 10 nM | CCOC[C@H](Oc1ccc(C(F)(F)F)cc1Cl)[C@H]1CCNC1 [Example 7-19, (S)-3-[(R)-1-(2-Chloro-4-trifluoromethylphenoxy)-2-ethoxyethyl]pyrrolidine] |  |  |  |
| ≤ 10 nM | ≤ 10 nM | CC(C)OC[C@@H](Oc1cccc(Cl)c1C(F)(F)F)[C@H]1CCNC1 [Example 9-19, (S)-3-[(S)-1-(3-Chloro-2-trifluoromethylphenoxy)-2-isopropoxyethyl]pyrrolidine] |  |  |  |
| ≤ 10 nM | ≤ 100 nM | CCOC[C@@H](Oc1cccc(Cl)c1C(F)(F)F)[C@H]1CCNC1 [Example 7-16, (S)-3-[(S)-1-(3-Chloro-2-trifluoromethylphenoxy)-2-ethoxyethyl]pyrrolidine] |  |  |  |
| ≤ 100 nM | ≤ 100 nM | CC(C)OC[C@H](Oc1cccc(C(F)(F)F)c1)[C@H]1CCNC1 [Example 9-4, (S)-3-[(R)-2-Isopropoxy-1-(3-trifluoromethylphenoxy)ethyl]pyrrolidine] |  |  |  |
| ≤ 10 nM | ≤ 10 nM | CC(C)OC[C@H](Oc1cccc(F)c1Cl)[C@H]1CCNC1 [Example 9-12, (S)-3-[(R)-1-(2-Chloro-3-fluorophenoxy)-2-isopropoxyethyl]pyrrolidine] |  |  |  |
| ≤ 100 nM | ≤ 10 nM | CCOC[C@H](Oc1cc(Cl)cc(Cl)c1)[C@H]1CCNC1 [Example 7-27, (S)-3-[(R)-1-(3,5-Dichlorophenoxy)-2-ethoxyethyl]pyrrolidine] |  |  |  |
| ≤ 100 nM | ≤ 100 nM | CCOC[C@@H](Oc1cccc(C(F)(F)F)c1)[C@H]1CCNC1 [Example 7-3, (S)-3-[(S)-2-Ethoxy-1-(3-trifluoromethylphenoxy)ethyl]pyrrolidine] |  |  |  |
| ≤ 10 nM | ≤ 100 nM | CCOC[C@@H](Oc1ccc(C#N)cc1Cl)[C@@H]1CCNC1 (stereo in doubt) [Example 7-20, 3-Chloro-4-((R)-2-ethoxy-1-(S)-pyrrolidin-3-ylethoxy)benzonitrile] |  |  |  |
| ≤ 100 nM | ≤ 10 nM | CCOC[C@H](Oc1ccccc1Cl)[C@H]1CCNC1 [Example 7-1, (S)-3-[(R)-1-(2-Chlorophenoxy)-2-ethoxyethyl]pyrrolidine] |  |  |  |
| ≤ 10 nM | ≤ 100 nM | CC(C)OC[C@@H](Oc1cccc(C(F)(F)F)c1)[C@H]1CCNC1 [Example 9-3, (S)-3-[(S)-2-Isopropoxy-1-(3-trifluoromethylphenoxy)ethyl]pyrrolidine] |  |  |  |
| ≤ 10 nM | ≤ 10 nM | CCOC[C@H](Oc1ccc(Cl)c(F)c1)[C@H]1CCNC1 [Example 7-26, (S)-3-[(R)-1-(4-Chloro-3-fluorophenoxy)-2-ethoxyethyl]pyrrolidine] |  |  |  |
| ≤ 10 nM | ≤ 10 nM | Cc1c(Cl)cccc1O[C@H](COC(C)C)[C@H]1CCNC1 [Example 9-15, (S)-3-[(S)-1-(3-Chloro-2-methylphenoxy)-2-isopropoxyethyl]pyrrolidine] |  |  |  |
| ≤ 10 nM | ≤ 10 nM | Cc1c(Cl)cccc1O[C@@H](COC(C)C)[C@H]1CCNC1 [Example 9-16, (S)-3-[(R)-1-(3-Chloro-2-methylphenoxy)-2-isopropoxyethyl]pyrrolidine] |  |  |  |
| ≤ 10 nM | ≤ 10 nM | CCSC[C@H](Oc1cccc(Cl)c1C(F)(F)F)[C@H]1CCNC1 [Example 16, (S)-3-[(R)-1-(3-Chloro-2-trifluoromethylphenoxy)-2-ethylsulfanylethyl]-pyrrolidine] |  |  |  |
| ≤ 100 nM | ≤ 10 nM | CCOC[C@H](Oc1c(F)ccc(F)c1Cl)[C@H]1CCNC1 [Example 7-30, (S)-3-[(R)-1-(2-Chloro-3,6-difluorophenoxy)-2-ethoxyethyl]pyrrolidine] |  |  |  |
| ≤ 100 nM | ≤ 10 nM | CCOC[C@H](Oc1ccc(F)cc1Cl)[C@H]1CCNC1 [Example 7-18, (S)-3-[(R)-1-(2-Chloro-4-fluorophenoxy)-2-ethoxyethyl]pyrrolidine] |  |  |  |
| ≤ 100 nM | ≤ 100 nM | CCOC[C@H](Oc1cccc(C(F)(F)F)c1F)[C@H]1CCNC1 [Example 7-12, (S)-3-[(R)-2-Ethoxy-1-(2-fluoro-3-trifluoromethylphenoxy)ethyl]pyrrolidine] |  |  |  |
| ≤ 10 nM | ≤ 10 nM | CCOC[C@H](Oc1ccc(Cl)cc1C)[C@H]1CCNC1 [Example 7-22, (S)-3-[(R)-1-(4-Chloro-2-methylphenoxy)-2-ethoxyethyl]pyrrolidine] |  |  |  |
